Source: patent publication US12528767B2, “HDAC6 inhibitors and uses thereof” (Eikonizo Therapeutics, Inc., priority 2019, dated 2026)
Where two headings read alike, the source gives them in different places.

What was measured:
Full length Human HDAC8 = target: T1, Full length Human HDAC8 (Homo sapiens, UniProt Q9BY41)
T1 sequence (Q9BY41 1-377): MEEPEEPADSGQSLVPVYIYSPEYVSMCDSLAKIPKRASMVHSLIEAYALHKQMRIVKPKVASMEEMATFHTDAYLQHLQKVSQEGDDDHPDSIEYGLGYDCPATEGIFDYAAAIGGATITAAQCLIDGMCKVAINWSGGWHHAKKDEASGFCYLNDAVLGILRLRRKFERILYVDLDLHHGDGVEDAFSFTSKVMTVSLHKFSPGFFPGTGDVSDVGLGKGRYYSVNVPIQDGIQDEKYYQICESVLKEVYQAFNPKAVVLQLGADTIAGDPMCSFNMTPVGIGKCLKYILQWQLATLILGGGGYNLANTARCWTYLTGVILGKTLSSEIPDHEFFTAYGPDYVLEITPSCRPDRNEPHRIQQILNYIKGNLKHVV

Full length Human HDAC6 = target: T2, Full length Human HDAC6 (Homo sapiens, UniProt Q9UBN7); details: for Selectivity (6 v 8) (fold): ratio of HDAC8 IC50/HDAC6 IC50
T2 sequence (Q9UBN7 1-1215): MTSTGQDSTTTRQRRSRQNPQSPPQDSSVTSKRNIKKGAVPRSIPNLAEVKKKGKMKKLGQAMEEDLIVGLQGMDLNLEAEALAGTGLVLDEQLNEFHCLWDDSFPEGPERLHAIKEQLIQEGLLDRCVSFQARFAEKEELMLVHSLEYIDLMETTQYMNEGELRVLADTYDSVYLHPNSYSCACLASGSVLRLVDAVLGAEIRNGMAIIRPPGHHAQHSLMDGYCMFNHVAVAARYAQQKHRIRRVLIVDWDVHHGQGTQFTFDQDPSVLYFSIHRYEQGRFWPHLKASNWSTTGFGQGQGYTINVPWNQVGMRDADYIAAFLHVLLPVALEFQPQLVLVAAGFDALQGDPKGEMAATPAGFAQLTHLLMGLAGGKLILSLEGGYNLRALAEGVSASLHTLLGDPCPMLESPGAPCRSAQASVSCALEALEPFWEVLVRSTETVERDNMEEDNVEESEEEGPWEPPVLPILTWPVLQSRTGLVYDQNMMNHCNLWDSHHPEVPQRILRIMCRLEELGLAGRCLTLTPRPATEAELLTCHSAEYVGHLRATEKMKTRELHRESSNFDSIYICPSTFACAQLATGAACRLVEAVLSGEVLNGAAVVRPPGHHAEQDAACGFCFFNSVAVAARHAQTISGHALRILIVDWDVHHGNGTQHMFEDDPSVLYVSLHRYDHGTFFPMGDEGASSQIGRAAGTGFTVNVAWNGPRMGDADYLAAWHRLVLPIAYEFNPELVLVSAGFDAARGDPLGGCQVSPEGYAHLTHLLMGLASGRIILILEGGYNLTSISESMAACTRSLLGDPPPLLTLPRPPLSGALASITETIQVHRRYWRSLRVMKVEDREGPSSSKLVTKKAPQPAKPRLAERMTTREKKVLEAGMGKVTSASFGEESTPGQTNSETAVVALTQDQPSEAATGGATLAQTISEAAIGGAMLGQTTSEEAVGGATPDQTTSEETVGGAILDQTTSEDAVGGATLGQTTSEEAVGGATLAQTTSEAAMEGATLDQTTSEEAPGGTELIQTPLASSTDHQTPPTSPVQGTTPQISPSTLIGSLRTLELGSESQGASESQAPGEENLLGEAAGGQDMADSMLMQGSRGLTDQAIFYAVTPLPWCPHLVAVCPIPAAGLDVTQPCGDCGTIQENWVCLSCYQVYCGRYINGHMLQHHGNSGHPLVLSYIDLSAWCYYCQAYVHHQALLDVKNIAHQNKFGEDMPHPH

| SMILES | IC50 (Full length Human HDAC8) [nM] | IC50 (Full length Human HDAC6) [nM] | Selectivity (6 v 8) (fold) (Full length Human HDAC6; Table 1, number) | Selectivity (6 v 8) (fold) (Full length Human HDAC6; Table 1, range class) |
| --- | --- | --- | --- | --- |
| Cc1ccn2c1-c1c(F)cc(C(=O)NO)cc1CC2 [compound 155, 10-fluoro-N-hydroxy-1-methyl-5,6-dihydropyrrolo[2,1-a] isoquinoline-8-carboxamide] | 100 to 1000 | 1 to 100 | 6.1 | II (II: >1-10) |
| O=C(NO)c1cc(F)c2c(c1)CCN([C@@H]1CCC13CCCCC3)C2 (single isomer, unassigned) [compound 8] | 10000 to 100000 | 100 to 1000 | 198.5 | IV (IV: >100-1000) |
| O=C(NO)c1ccc(CN2CCOCC2)c(F)c1 [compound 51] | 100 to 1000 | 1 to 100 | 27.6 | III (III: >10-100) |
| O=C(NO)c1ccc(CN2CC3(CCOCC3)C2)c(F)c1 [compound 71] | 1000 to 10000 | 1 to 100 | 33.4 | III (III: >10-100) |
| O=C(NO)c1cc(F)c2c(c1)CN(CC13CC4CC(CC(C4)O1)C3)C2 [compound 13] | 10000 to 100000 | 100 to 1000 | 168.4 | IV (IV: >100-1000) |
| CN1Cc2ccc(C(=O)NO)cc2CN1Cc1ccccc1 [compound 117, 3-benzyl-N-hydroxy-2-methyl-1,2,3,4-tetrahydrophthalazine-6-carboxamide] | 100 to 1000 | 1 to 100 | 7.9 | II (II: >1-10) |
| O=C1CC2CCCC(C1)N2Cc1ccc(C(=O)NO)cc1F [compound 62] | 100 to 1000 | 1 to 100 | 30.6 | III (III: >10-100) |
| O=C(NO)c1cc(F)c2c(c1)CN(Cc1ccccc1)CC2 [compound 114, 2-benzyl-5-fluoro-N-hydroxy-1,2,3,4-tetrahydroisoquinoline-7-carboxamide] | 100 to 1000 | 1 to 100 | 10.3 | III (III: >10-100) |
| O=C(NO)c1cc(F)c(CN2C3CCC2COC3)cc1F [compound 50] | 1000 to 10000 | 1 to 100 | 45.5 | III (III: >10-100) |
| O=C(NO)c1cc(F)c2c(c1)CN(CC13CC4CC(CC(C4)C1)C3)CC2 [compound 113, 2-(((3r,5r,7r)-adamantan-1-yl)methyl)-5-fluoro-N-hydroxy-1,2,3,4-tetrahydroisoquinoline-7-carboxamide] | 1000 to 10000 | 1 to 100 | – | – |
| O=C(NO)c1ccc(CN2CC3(CCCCC3)C2)c(F)c1 [compound 70] | 1000 to 10000 | 1 to 100 | 16 | III (III: >10-100) |
| O=C(NO)c1cc(F)c2c(c1)CN(CC1COC1)CC2 [compound 115, 5-fluoro-N-hydroxy-2-(oxetan-3-ylmethyl)-1,2,3,4-tetrahydroisoquinoline-7-carboxamide] | 1000 to 10000 | 100 to 1000 | – | – |
| O=C1CC2CCC(C1)N2Cc1ccc(C(=O)NO)cc1F [compound 63] | 100 to 1000 | 1 to 100 | 42.1 | III (III: >10-100) |
| O=C(NO)c1ccc(CN2CC3(CCOC3)C2)c(F)c1 [compound 68] | 1000 to 10000 | 1 to 100 | 27.9 | III (III: >10-100) |
| O=C(NO)c1cc(F)c2c(c1)CCN(C1CCC13CCCCC3)C2 (centres unmarked) [compound 15] | 10000 to 100000 | 1 to 100 | 209.2 | IV (IV: >100-1000) |
| CN1CC2(CCCCC2)CC[C@H]1Cc1cc(F)cc(C(=O)NO)c1 (single isomer, unassigned) [compound 171] | 1000 to 10000 | 1 to 100 | 30.2 | III (III: >10-100) |
| O=C(NO)c1ccc2c(c1)C[C@@H]1COCC(=O)N1C2 (single isomer, unassigned) [compound 133] | 1000 to 10000 | 100 to 1000 | – | – |
| CC1(C)C[C@H]2Cc3cc(C(=O)NO)cc(F)c3CN2C1 (single isomer, unassigned) [compound 125] | 1000 to 10000 | 1 to 100 | 82 | III (III: >10-100) |
| O=C(NO)c1ccc(CN2CCCC3(C2)C2CC4CC(C2)CC3C4)c(F)c1 (centres unmarked) [compound 77] | 1000 to 10000 | 1 to 100 | – | – |
| CN1CC2CCC1CN2Cc1ccc(C(=O)NO)cc1F (centres unmarked) [compound 57] | 100 to 1000 | 1 to 100 | 10.7 | III (III: >10-100) |
| O=C(NO)c1ccc(CN2CCCC3(CCCCC3)C2)c(F)c1 [compound 64] | 1000 to 10000 | 1 to 100 | – | – |
| O=C(NO)c1cc(F)c2c(c1)CCn1cccc1-2 [compound 147, 10-fluoro-N-hydroxy-5,6-dihydropyrrolo[2,1-a] isoquinoline-8-carboxamide] | 1000 to 10000 | 1 to 100 | – | – |
| O=C(NO)c1ccc(CN2CC3(CCCC3)C2)c(F)c1 [compound 69] | 1000 to 10000 | 1 to 100 | 20.6 | III (III: >10-100) |
| O=C(NO)c1cc(F)c2c(c1)CCN(CC13CC4CC(CC(C4)O1)C3)C2 [compound 14] | 10000 to 100000 | 1 to 100 | – | – |
| O=C(NO)c1cc(F)c2c(c1)CCN([C@H]1CCC13CCCCC3)C2 (single isomer, unassigned) [compound 9] | 10000 to 100000 | 1 to 100 | 207.1 | IV (IV: >100-1000) |
| O=C(NO)c1cc(F)c2c(c1)CCN(C1CCC1)C2 [compound 4] | 10000 to 100000 | 1 to 100 | – | – |
| O=C(NO)c1ccc2c(c1)Cn1cccc1-2 [compound 166, N-hydroxy-5H-pyrrolo[2,1-a]isoindole-7-carboxamide] | 1000 to 10000 | 100 to 1000 | 14 | III (III: >10-100) |
